Data from paper PMC12491243, “Rational design of indoleamine 2,3-dioxygenase 1 (IDO1) inhibitors featuring 1,2,3-triazole derivatives with enhanced anti-inflammatory and analgesic efficacy” (Frontiers in Pharmacology, 2025).

Legend:
[1] = target: T1, IDO1 (Homo sapiens, UniProt P14902); assay: HeLa cell-based IDO1 inhibition assay; conditions: HeLa cells, 100 ng/mL human IFN-γ, 18 h, kynurenine absorbance at 480 nm
T1 construct: endogenous in cells; host or cells: HeLa cells stimulated with 100 ng/mL human IFN-γ
T1 sequence (P14902 whole entry): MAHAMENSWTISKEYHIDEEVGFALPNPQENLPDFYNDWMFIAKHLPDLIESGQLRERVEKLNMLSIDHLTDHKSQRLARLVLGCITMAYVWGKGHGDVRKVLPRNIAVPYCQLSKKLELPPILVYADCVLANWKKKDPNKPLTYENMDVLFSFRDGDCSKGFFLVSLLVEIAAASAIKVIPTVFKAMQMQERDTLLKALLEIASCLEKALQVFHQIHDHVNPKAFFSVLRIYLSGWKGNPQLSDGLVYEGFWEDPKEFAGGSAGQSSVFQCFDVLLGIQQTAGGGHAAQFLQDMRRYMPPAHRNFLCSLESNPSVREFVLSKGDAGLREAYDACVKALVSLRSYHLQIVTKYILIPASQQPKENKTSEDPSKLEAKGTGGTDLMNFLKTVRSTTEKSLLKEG
Protocol: To evaluate the IDO1 inhibitory activity of the newly synthesized derivatives, HeLa cells with high IDO1 expression were used as the experimental model. […] To perform the HeLa cell-based IDO1 inhibition assay, HeLa cells were seeded at a density of 50,000 cells per well in a 96-well microplate containing 100 μL of DMEM supplemented with 10% fetal bovine serum and 1% penicillin-streptomycin. The cells were incubated overnight at 37 °C in a humidified atmosphere with 5% CO2. The following day, 100 μL of growth medium containing diluted inhibitors and 100 ng/mL human IFN-γ was added to each well. The cells were then incubated at 37 °C in a CO2 incubator for 18 h. […] The plate was incubated at 50 °C for 30 min and then centrifuged at 2,500 rpm for 10 min to remove any sediment. Next, 100 μL of the supernatant was transferred to a separate 96-well plate and mixed with 100 μL of 2% (w/v) 4-(dimethylamino)benzaldehyde in acetic acid. After a 10-min incubation at room temperature, the absorbance of the resulting yellow color, indicative of kynurenine, was measured at 480 nm using a microplate reader.

[2] = tested on: Iba1-positive microglia; assay: Immunofluorescence of Iba1-positive microglia in spinal dorsal horn of CFA mice; format: in vivo; conditions: 3 days after CFA, 30 mg/kg i.p.
Protocol: Given the critical role of microglial activation in inflammation-mediated responses, we investigated whether Compound 14e could modulate microglial activity in the spinal dorsal horn of mice following Complete Freund’s Adjuvant (CFA) injection. First, we assessed the expression of the microglial marker Iba1 in the L4–L6 segments of the spinal cord.
FIGURE 4 Compound 14e prevented the upregulation of Iba1 in CFA mice.
The mice were anesthetized with isoflurane, and 40 μL of CFA (Sigma-Aldrich) was intraplantarly injected into the mid-plantar surface of their left hind paws. As for the control group, an equivalent volume of normal saline was injected ([Jiang et al., 2018]).
The compound 14e were diluted with 10% DMSO, and were intraperitoneally injected with 30 mg/kg into the mice once a day for 3 days after CFA. The dosage of compound 14e was determined based on our preliminary experiments.
Under anesthesia with 1% pentobarbital sodium (0.1 g/kg, i. p.), mice were perfused intracardially with warm normal saline followed by cold 4% paraformaldehyde (PFA) in 0.1 M phosphate buffer (PB). The whole spinal cord in L4 – L5 segments was rapidly dissected and post-fixed in 4% PFA for 6 h, then cryoprotected by incubation of PB with 20% and 30% sucrose solutions at 4 °C in turn. […] Images were taken with a fluorescence microscope (BX53, Olympus).

[3] = tested on: CFA-induced inflammatory pain model; assay: CFA-induced mechanical allodynia, von Frey paw withdrawal frequency; format: in vivo; conditions: CFA mice, 30 mg/kg i.p., 0.07 g and 0.4 g von Frey filaments, ipsilateral side, 12 to 72 h post-CFA
Protocol: To evaluate the analgesic effects of Compound 14e in vivo, we established an inflammatory pain model using intraplantar injection of CFA. Compound 14e (30 mg/kg) was administered intraperitoneally at 6 h, with subsequent doses at 48 and 72 h after CFA injection. Behavioral assessments, including von Frey testing for mechanical allodynia and heat stimuli for thermal hyperalgesia, were conducted on the injected hind paw at baseline (BL), as well as at 6, 12, 18, 24, 48 and 72 h post-CFA injection. Additionally, flinching and guarding behaviors, indicators of spontaneous pain, were evaluated 72 h after CFA injection. […] (A,B) Evaluation of CFA-induced mechanical allodynia as assessed by withdrawal frequency to 0.07 g (A) and 0.4 g (B) von Frey filaments in mice repetitive treated with 10% DMSO or compound 14e. […] The dosage of compound 14e was determined based on our preliminary experiments. Mechanical hypersensitivity was assessed by measuring paw withdrawal frequency (PWF) as described previously in our reports ([Ma et al., 2021]; [Pan et al., 2021]). The PWF in response to mechanical stimulus was determined using two calibrated von Frey filaments (0.07 and 0.4 g, North Coast Medical Inc., Gilroy, United States). […] The PWF was calculated based on the number of positive responses from the 10 applications ([number of paw withdrawals/10 trials] × 100 = % response frequency).

SMILES: O=C1COc2ccc(NC(=O)c3cccc(-c4cn(Cc5c(F)cccc5Cl)nn4)c3)cc2N1 [Compound 14e]
- IC50 [1]: 3.63 µM
- morphological changes and accumulation of Iba1-positive microglia (immunofluorescence) [2]: notably alleviated
- mechanical allodynia, paw withdrawal frequency (PWF) [3]: significantly alleviated
